Reference: PubChem BioAssay (NCI)
Where “and” joins values, the source holds several entries; their conditions need not be identical. Equal values may be shown once.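 Five compound concentrations were applied to cells in 96-well plates for 48 hours; endpoints were derived by simple linear interpolation of the resulting dose-response curve. The concentration for 50% growth inhibition is given as GI50. The concentration for full growth arrest is given as TGI.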

Test system: MDA-MB-468 breast
Experiment: DTP human tumour cell line panel, 48 h

CC(=O)Oc1ccc(OC(C)=O)c2ccccc12
GI50: 477 nM
TGI: 2190 nM

C#CCN1C(=O)/C(=c2\sc3n(c2=O)C2C(NN=3)N(CC)C(=O)N2CC)c2ccccc21 (configuration not stated)
GI50: 331 nM
TGI: 3240 nM

O=C1NC(=O)/C(=C/C=C/c2ccccc2)S1
GI50: 10900 nM
TGI: 56000 nM

COc1ccc(-c2ccc3c(NC(=O)C4CC4)n[nH]c3n2)cc1
GI50: > 25000 nM
TGI: > 25000 nM

CCN1CCN(c2nc(NNC(=O)Cc3ccccc3)nc(N3CCN(C(c4ccccc4)c4ccccc4)CC3)n2)CC1
GI50: 1950 nM
TGI: 4520 nM

COc1ccc(-c2ccc(/C=C/C(=O)NO)cc2)cc1
GI50: 463 nM
TGI: 2620 nM

Cl.[Pt].[c-]1ccccc1-c1ccccn1.c1ccc(P(c2ccccc2)C([PH+](c2ccccc2)c2ccccc2)[PH+](c2ccccc2)c2ccccc2)cc1
GI50: 571 nM
TGI: 4210 nM

CCN(CC)CCN1C(=O)c2c(c(C)c3c(oc4cc(O)ccc43)c2C)C1=O
GI50: 1460 nM
TGI: 3010 nM

N#Cc1c(NC(=O)c2ccccc2)sc2c1CCC(=O)C2
GI50: 2190 nM
TGI: 6940 nM

COc1ccc(C(=O)c2cc(OC)c(OC)c(OC)c2)cc1OC(C)=O
GI50: 754 nM

CC1(C)CCC[C@]23C(=O)O[C@](O)(C(=O)C4=C[C@@](C)(/C=C/CCCc5ccc6ccc7cccc8ccc5c6c78)CC[C@@]42O)[C@@H]13
GI50: 196 nM
TGI: 409 nM

Nc1ncnc2c1c(C(F)(F)F)cn2[C@@H]1O[C@H](CO)[C@@H](O)[C@H]1O
GI50: 242 nM
TGI: 2140 nM

Cn1nc(C(F)(F)F)c(-c2ccc(Cl)c(C(F)(F)F)c2)c1-c1ccc(OCc2ccc(Cl)cc2)cc1O
GI50: 1340 nM
TGI: 3650 nM

O=C(NCc1cccnc1)/C(=C\c1ccc(Br)cc1)S(=O)(=O)c1ccccc1
GI50: 266 nM
TGI: 933 nM

CCOC(=O)c1sc(-c2ccc(OS(=O)(=O)c3cccs3)c(C=O)c2)nc1C
GI50: 1310 nM
TGI: 4950 nM

COc1ccc(/C=C/c2c(C(=O)/C=C/c3ccc(Cl)cc3)c(C)nc3ccccc23)cc1
GI50: 1790 nM
TGI: 3540 nM

CC(=O)OCC1OC(OC2C(COC(C)=O)OC(OCCC[S-])C(OC(C)=O)C2OC(C)=O)C(OC(C)=O)C(OC(C)=O)C1OC(C)=O.[Au+].c1ccc(CN2[CH-]N(Cc3ccccc3)C(c3ccccc3)=C2c2ccccc2)cc1 (configuration not stated)
GI50: 2810 nM
TGI: 12400 nM

CCCCCCCCCCCCn1c(C)nc2ccccc21
GI50: 601 nM
TGI: 19400 nM

Nc1ccc(-c2nc3ccc4[nH]ncc4c3c3c2CCCC3)cc1F
GI50: 126 nM
TGI: 625 nM

C[C@]12O[C@H](C[C@]1(O)CO)n1c3ccccc3c3c4c(c5c6ccccc6n2c5c31)CNC4=O
GI50: 457 nM and 185 nM
TGI: 2570 nM and 1650 nM

CCSc1oc(-c2ccccc2)nc1[P+](c1ccccc1)(c1ccccc1)c1ccccc1
GI50: 168 nM
TGI: 676 nM

CN1/C(=C\C(I)C(I)C2=[N+](C)c3ccccc3C2(C)C)C(C)(C)c2ccccc21 (configuration not stated)
GI50: 72.3 nM
TGI: 1240 nM

CN(C)CCCNc1nn2c(=O)c3ccccc3nc2c2ccccc12
GI50: 6230 nM
TGI: 20000 nM

COc1ccc(SC2c3cc(OC)c(OC)cc3Oc3nc(N)c(C#N)c(N)c32)cc1 (configuration not stated)
GI50: 320 nM
TGI: 1530 nM

CC(C)C[C@H](NC(=O)[C@H](CCc1ccccc1)NC(=O)CN1CCOCC1)C(=O)N[C@@H](Cc1ccccc1)C(=O)N[C@@H](CC(C)C)C(=O)[C@@]1(C)CO1
GI50: < 13.5 nM
TGI: 36.2 nM

COc1cc(C)c(C(=O)O[C@H]2[C@H](O[C@H]3[C@@H](O)COC(O[C@H]4C[C@H]5[C@@H]6CC=C7C[C@@H](O)CC[C@]7(C)[C@H]6CC[C@]5(C)[C@H]4[C@H](C)C(=O)CCC(C)C)[C@@H]3OC(C)=O)OC[C@@H](O)[C@@H]2O)c(C)c1 (some centres not stated)
GI50: 17.1 nM
TGI: 1840 nM

COc1ccc(/C(C)=C(\c2ccc(Cl)cc2)c2ccc(OCCN3CCCC3)cc2)cc1
GI50: 4030 nM
TGI: 8850 nM

S=c1nc(-c2ccccc2)oc(=NC2CCCCC2)n1C1CCCCC1
GI50: 1970 nM
TGI: 4830 nM

COc1ccc(-c2nn(-c3cccc(Cl)c3)cc2C=C(C#N)C#N)cc1
GI50: 1670 nM
TGI: 4960 nM

CC1(C)N=C(N)N=C(N)N1c1cccc(C#N)c1
GI50: 2310 nM
TGI: > 100000 nM

CCCS(=O)(=O)Nc1ccc(F)c(C(=O)c2c[nH]c3ncc(-c4ccc(Cl)cc4)cc23)c1F
GI50: 3550 nM and 5650 nM
TGI: 20100 nM and > 10000 nM

O=C(/C=C/c1ccc(C(F)(F)F)cc1)c1ccc(Nc2nc(NCCO)nc(NCCO)n2)cc1
GI50: 2020 nM
TGI: 5070 nM

C/C(=N\NC(N)=O)C(CN1CCCCC1)C(c1ccccc1)c1c(O)c2ccccc2oc1=O (configuration not stated)
GI50: > 100000 nM
TGI: > 100000 nM

O=C1c2ccccc2C(=O)c2c1ccc(C(Br)Br)c2[N+](=O)[O-]
GI50: 541 nM
TGI: 2280 nM
